From patent US8562998B2, “Targeting of antigen presenting cells with immunonanotherapeutics” (President and Fellows of Harvard College, priority 2008, dated 2013)

System: anti-nicotine IgG
Test: Anti-nicotine IgG titers in immunized mice (ELISA)
Type: in vivo, C57BL6 mice
Conditions: immunized day 0, boosted after 2, 4 and 8 weeks

For `CN1CCCC1c1cccnc1` (stereo not shown) [free nicotine, nicotine], the “production of nicotine antibodies” value was “does not elicit the production of nicotine antibodies”.
